PubChem BioAssay (NCI)
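Growth conditions: 96-well plates. Treatment: test compound, 48 hours, 5 concentrations. Analysis: linear interpolation between bracketing concentrations; unreached endpoints set to highest concentration. The concentration for 50% growth inhibition is given as GI50. Definition used: TGI = concentration required for complete inhibition of growth.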

How the values were obtained:
Assay in all cases: DTP human tumour cell line panel, 48 h
HT29 colon = system: HT29 colon
OVCAR-4 ovarian = system: OVCAR-4 ovarian
ACHN renal = system: ACHN renal
SNB-19 CNS = system: SNB-19 CNS
MOLT-4 leukemia = system: MOLT-4 leukemia
U251 CNS = system: U251 CNS
SK-MEL-5 melanoma = system: SK-MEL-5 melanoma
UO-31 renal = system: UO-31 renal
NCI-H522 lung = system: NCI-H522 lung
OVCAR-5 ovarian = system: OVCAR-5 ovarian
CAKI-1 renal = system: CAKI-1 renal
RPMI-8226 leukemia = system: RPMI-8226 leukemia
HL-60(TB) leukemia = system: HL-60(TB) leukemia
MDA-MB-231 breast = system: MDA-MB-231 breast
UACC-257 melanoma = system: UACC-257 melanoma
IGROV1 ovarian = system: IGROV1 ovarian
HOP-92 NSCLC = system: HOP-92 NSCLC
LOX IMVI melanoma = system: LOX IMVI melanoma
HCT-116 colon = system: HCT-116 colon
MDA-MB-435 = system: MDA-MB-435
SW-620 colon = system: SW-620 colon
CCRF-CEM leukemia = system: CCRF-CEM leukemia
NCI-H460 lung = system: NCI-H460 lung
SN12C renal = system: SN12C renal
SK-MEL-28 melanoma = system: SK-MEL-28 melanoma
T-47D breast = system: T-47D breast
COLO 205 colon = system: COLO 205 colon
HS 578T breast = system: HS 578T breast
SF-539 CNS = system: SF-539 CNS
OVCAR-3 ovarian = system: OVCAR-3 ovarian
786-0 renal = system: 786-0 renal
NCI-H23 lung = system: NCI-H23 lung
SNB-75 CNS = system: SNB-75 CNS
DU-145 prostate = system: DU-145 prostate
TK-10 renal = system: TK-10 renal
UACC-62 melanoma = system: UACC-62 melanoma
A498 renal = system: A498 renal
KM12 colon = system: KM12 colon
HCC-2998 colon = system: HCC-2998 colon
SK-MEL-2 melanoma = system: SK-MEL-2 melanoma
SF-268 CNS = system: SF-268 CNS
SF-295 CNS = system: SF-295 CNS
M14 melanoma = system: M14 melanoma
SR leukemia = system: SR leukemia
PC-3 prostate = system: PC-3 prostate
BT-549 breast = system: BT-549 breast
K-562 leukemia = system: K-562 leukemia
MCF7 breast = system: MCF7 breast
OVCAR-8 ovarian = system: OVCAR-8 ovarian
SK-OV-3 ovarian = system: SK-OV-3 ovarian
A549 NSCLC = system: A549 NSCLC
NCI-H226 lung = system: NCI-H226 lung
HCT-15 colon = system: HCT-15 colon
NCI/ADR-RES ovarian = system: NCI/ADR-RES ovarian
RXF 393 renal = system: RXF 393 renal
HOP-62 NSCLC = system: HOP-62 NSCLC

With `Cn1ccc(S(=O)(=O)N2CCC[C@H](Nc3nccc(-c4c(-c5cccc(O)c5)nc5occn45)n3)C2)n1` the GI50 (HT29 colon) was 732 nM, the TGI (HT29 colon) was 34.7 µM and the GI50 (OVCAR-4 ovarian) was 14.5 µM. It also gave a TGI (OVCAR-4 ovarian) greater than 85.8 µM, a GI50 (ACHN renal) of 7.19 µM and a TGI (ACHN renal) greater than 100 µM. For the same molecule, the GI50 (SNB-19 CNS) was 46.4 µM, the TGI (SNB-19 CNS) was greater than 100 µM and the GI50 (MOLT-4 leukemia) was 17.4 µM. The TGI (MOLT-4 leukemia) was 63.7 µM, the GI50 (U251 CNS) was 22.3 µM and the TGI (U251 CNS) was greater than 100 µM. The GI50 (SK-MEL-5 melanoma) was 3.51 µM, the TGI (SK-MEL-5 melanoma) was 18.6 µM and the GI50 (UO-31 renal) was 12.9 µM. It also gave a TGI (UO-31 renal) of 57.1 µM, a GI50 (NCI-H522 lung) of 13 µM and a TGI (NCI-H522 lung) of 36.4 µM. The GI50 (OVCAR-5 ovarian) was 24.9 µM, the TGI (OVCAR-5 ovarian) was greater than 100 µM and the GI50 (CAKI-1 renal) was 18 µM. For the same molecule, the TGI (CAKI-1 renal) was 78.1 µM, the GI50 (RPMI-8226 leukemia) was 14.9 µM and the TGI (RPMI-8226 leukemia) was 46.4 µM. For the same molecule, the GI50 (HL-60(TB) leukemia) was 10.8 µM, the TGI (HL-60(TB) leukemia) was 32.3 µM and the GI50 (MDA-MB-231 breast) was 6.23 µM. For the same molecule, the TGI (MDA-MB-231 breast) was greater than 66.6 µM, the GI50 (UACC-257 melanoma) was 224 nM and the TGI (UACC-257 melanoma) was 90.7 µM. For the same molecule, the GI50 (IGROV1 ovarian) was 10.9 µM, the TGI (IGROV1 ovarian) was 51.9 µM and the GI50 (HOP-92 NSCLC) was 7.64 µM. For the same molecule, the TGI (HOP-92 NSCLC) was 52.9 µM, the GI50 (LOX IMVI melanoma) was 2870 nM and the TGI (LOX IMVI melanoma) was 18.7 µM. For the same molecule, the GI50 (HCT-116 colon) was 3.93 µM, the TGI (HCT-116 colon) was 32.4 µM and the GI50 (MDA-MB-435) was 329 nM. For the same molecule, the TGI (MDA-MB-435) was 29.3 µM, the GI50 (SW-620 colon) was 15.9 µM and the TGI (SW-620 colon) was greater than 64.2 µM. The GI50 (CCRF-CEM leukemia) was 4.47 µM, the TGI (CCRF-CEM leukemia) was greater than 100 µM and the GI50 (NCI-H460 lung) was 15.5 µM. It also gave a TGI (NCI-H460 lung) of 59.8 µM, a GI50 (SN12C renal) of 8.01 µM and a TGI (SN12C renal) of 51.7 µM. For the same molecule, the GI50 (SK-MEL-28 melanoma) was 93.8 nM, the TGI (SK-MEL-28 melanoma) was 20.5 µM and the GI50 (T-47D breast) was 18.5 µM. The TGI (T-47D breast) was 70.5 µM, the GI50 (COLO 205 colon) was 91.3 nM and the TGI (COLO 205 colon) was 28.6 µM. The GI50 (HS 578T breast) was 7.57 µM, the TGI (HS 578T breast) was 93.5 µM and the GI50 (SF-539 CNS) was 17 µM. It also gave a TGI (SF-539 CNS) of 59.2 µM, a GI50 (OVCAR-3 ovarian) of 13.5 µM and a TGI (OVCAR-3 ovarian) of 51.9 µM. It also gave a GI50 (786-0 renal) of 20.1 µM, a TGI (786-0 renal) greater than 100 µM and a GI50 (NCI-H23 lung) of 12 µM. It also gave a TGI (NCI-H23 lung) of 41.8 µM, a GI50 (SNB-75 CNS) of 1900 nM and a TGI (SNB-75 CNS) greater than 89 µM. For the same molecule, the GI50 (DU-145 prostate) was 16.6 µM, the TGI (DU-145 prostate) was greater than 100 µM and the GI50 (TK-10 renal) was 14.3 µM. For the same molecule, the TGI (TK-10 renal) was 60.2 µM, the GI50 (UACC-62 melanoma) was 64.3 nM and the TGI (UACC-62 melanoma) was 3.4 µM. The GI50 (A498 renal) was 6.8 µM, the TGI (A498 renal) was 26.1 µM and the GI50 (KM12 colon) was 18.3 µM. It also gave a TGI (KM12 colon) greater than 86.9 µM, a GI50 (HCC-2998 colon) of 15 µM and a TGI (HCC-2998 colon) of 34.3 µM. It also gave a GI50 (SK-MEL-2 melanoma) of 444 nM, a TGI (SK-MEL-2 melanoma) of 10.7 µM and a GI50 (SF-268 CNS) of 21.4 µM. The TGI (SF-268 CNS) was greater than 100 µM, the GI50 (SF-295 CNS) was 22.3 µM and the TGI (SF-295 CNS) was 62.1 µM. The GI50 (M14 melanoma) was 112 nM, the TGI (M14 melanoma) was 13.9 µM and the GI50 (SR leukemia) was 8.19 µM. The TGI (SR leukemia) was 46.2 µM, the GI50 (PC-3 prostate) was 19.4 µM and the TGI (PC-3 prostate) was greater than 100 µM. For the same molecule, the GI50 (BT-549 breast) was 12.7 µM, the TGI (BT-549 breast) was 52.9 µM and the GI50 (K-562 leukemia) was 13.9 µM. It also gave a TGI (K-562 leukemia) greater than 100 µM, a GI50 (MCF7 breast) of 12.8 µM and a TGI (MCF7 breast) of 55.3 µM. It also gave a GI50 (OVCAR-8 ovarian) of 18.9 µM, a TGI (OVCAR-8 ovarian) greater than 100 µM and a GI50 (SK-OV-3 ovarian) of 5.71 µM. It also gave a TGI (SK-OV-3 ovarian) of 49.6 µM, a GI50 (A549 NSCLC) of 13.2 µM and a TGI (A549 NSCLC) of 42.9 µM. The GI50 (NCI-H226 lung) was 11.5 µM, the TGI (NCI-H226 lung) was greater than 84.8 µM and the GI50 (HCT-15 colon) was 22.3 µM. It also gave a TGI (HCT-15 colon) greater than 93.8 µM, a GI50 (NCI/ADR-RES ovarian) greater than 78.7 µM and a TGI (NCI/ADR-RES ovarian) greater than 100 µM. The GI50 (RXF 393 renal) was 4.47 µM, the TGI (RXF 393 renal) was 18.4 µM and the GI50 (HOP-62 NSCLC) was 31 µM. The TGI (HOP-62 NSCLC) was greater than 100 µM.
